From patent US20070275981A1, “(Hetero)Cyclycarboxamides for Controlling Pathogenic Fungi” (priority 2004, published 2007)

How the values were obtained:
Plasmopara viticola [1] = experiment: Activity against Peronospora of grapevines caused by Plasmopara viticola, 7 day protective application (Use Example 5); type: in vivo, Plasmopara viticola on potted grapevines; details: 250 ppm active compound, untreated plants 50% infected
Experimental: (§1) For the use examples 4 to 7, the active compounds were prepared as a stock solution comprising 25 mg of active compound which was made up with a mixture of acetone and/or DMSO and the emulsifier Uniperol® EL in a volume ratio of solvent/emulsifier of 99:1 to 10 ml. The mixture was then made up to 100 ml with water. This stock solution was diluted to the active compound concentration stated below using the solvent/emulsifier/water mixture described.
Leaves of potted grapevines were sprayed to runoff point with an aqueous suspension having the concentration of active compound stated below. To be able to assess the persistency of the substances, the plants were, after the spray coating had dried on, placed in a greenhouse for 7 days. The undersides of the leaves were then inoculated with an aqueous sporangia suspension of Plasmopara viticola. The grapevines were then placed initially for 48 hours in a water vapor-saturated chamber at 24° C. and then for 5 days in the greenhouse at temperatures between 20 and 30° C. After this time, the plants were again placed in a humid chamber for 16 hours, to accelerate sporangiophore eruption. The extent of the development of the infection on the undersides of the leaves was then determined visually.

Plasmopara viticola [2] = experiment: Activity against Peronospora of grapevines caused by Plasmopara viticola (Use Example 1, inoculation the next day); type: in vivo, Plasmopara viticola on potted grapevines; details: 250 ppm active compound, spray to runoff, inoculated next day; untreated plants 80% infected
Experimental: For the use examples 1 to 3, the active compounds were prepared as a stock solution comprising 0.25% by weight of active compound in acetone or dimethyl sulfoxide (DMSO). 1% by weight of the emulsifier Uniperol® EL (wetting agent having emulsifying and dispersant action based on ethoxylated alkylphenols) was added to this solution, and the mixture was diluted with water to the desired concentration.
Leaves of potted grapevines were sprayed to runoff point with an aqueous suspension having the concentration of active compounds stated below. The next day, the undersides of the leaves were inoculated with an aqueous sporangia suspension of Plasmopara viticola. The grapevines were then initially placed in a water vapor-saturated chamber at 24° C. for 48 hours and then in a greenhouse at temperatures between 20 and 30° C. for 5 days. After this time, the plants were again placed in a humid chamber for 16 hours to promote sporangiophore eruption. The extent of the development of the infection on the undersides of the leaves was then determined visually.

[3] = test system: Erysiphe [syn. Blumeria] graminis forma specialis. tritici; experiment: Activity against mildew of wheat caused by Erysiphe [syn. Blumeria] graminis forma specialis. tritici (Use Example 7); type: in vivo; details: 250 ppm active compound, protective 24 h, 7 days; untreated plants 70% infected
Experimental: as §1
Leaves of potted wheat seedlings of the cultivar “Kanzler” were sprayed to runoff point with an aqueous suspension having the concentration of active compound stated below. 24 h after the spray coating had dried on, the leaves were dusted with spores of mildew of wheat (Erysiphe [syn. Blumeria] graminis forma specialis. tritici). The plants were then placed in a greenhouse at temperatures between 20 and 24° C. and 60 to 90% relative atmospheric humidity. After 7 days, the extent of the fungal infection was determined visually by the infection of the leaf area.

Botrytis cinerea = experiment: Activity against gray mold on bell pepper leaves caused by Botrytis cinerea, protective application (Use Example 6); type: in vivo; details: 63 ppm active compound, 5 days, untreated plants 90% affected
Experimental: The mixture was then made up to 100 ml with water.
The next day, the treated plants were inoculated with an aqueous spore suspension of Botrytis cinerea in a 2% strength aqueous biomold solution having a density of 1.7×10^6 spores/ml. The plants were then placed in a dark acclimatized chamber at temperatures between 22 and 24° C. and high atmospheric humidity. After 5 days, the extent of the fungal infection could be determined visually by the infection of the leaf area.

Structure (SMILES): Cc1nn(C)cc1C(=O)Nc1cc(C(F)(F)F)nn1-c1ccccc1 [example 10]
- infection (Plasmopara viticola [1]): at most 20%

Structure (SMILES): Cc1ccsc1C(=O)Nc1cc(C(F)(F)F)nn1-c1ccc(Br)cc1 [example 18]
- infection (Plasmopara viticola [2]): at most 20%

Structure (SMILES): Cc1ccc(-n2nccc2NC(=O)c2cccnc2Cl)cc1 [example 31]
- infection (leaf area) [3]: at most 15%

Structure (SMILES): Cn1cc(C(=O)Nc2ccnn2-c2ccc(-c3ccccc3)cc2)c(C(F)(F)F)n1 [example 43]
- infection (leaf area) (Botrytis cinerea): at most 10%
